Experimental data reported in EP0642343B1, “Acridine carboxamides for the treatment of cancer” (XENOVA LIMITED, priority 1992, dated 1993).
Where two headings read alike, the source gives them in different places.

Tests used:
B1A = experiment: Resistance factor, drug-resistant Jurkat leukaemia subline; type: cell-based, human
Procedure: (§1) Tumour cell lines were cultured in 96-well plates. Growth of NCI cell lines was assessed using sulpho-rhodamine B staining (Skehan P., et al., J. Natl. Cancer Inst. 1990, 82, 1107-1112), that of the leukaemia lines with (4,5-dimethylthiazole-2-yl)-2,5-diphenyltetrazolium (MTT) staining (Mosmann T., J. Immun. Methods 1983, 65, 55-63) and that of the primary human tumour material by ^3H-thymidine incorporation (Marshall E.S., et al., J. Natl. Cancer Inst. 1992, 84, 341-344). Primary tumour material was cultured in 96-well plates in which the wells were coated with agarose to inhibit selectively the growth of normal cells. (Marshall E.S., et al., J. Natl. Cancer Inst. 1992, 84, 341-344). Primary cultures were incubated at 37°C in sealed perspex boxes containing a humidified atmosphere of 5% CO2 and 5% O2 in nitrogen for 7 days. 5-Methyl-[^3H]-thymidine (20 Ci.mmol^-1; 0.04 µCi per well), thymidine and 5-fluorodeoxyuridine (each at final concentrations of 0.5 µM) were added in medium to cultures (20 µl per well) 24 h before terminating the cultures. Cells were aspirated on to glass fibre filters using a multiple automated sample harvester (LKB Wallac OY Beta Harvester). The filter discs were washed for 15 seconds with water, dried, and the amount of tritium retained quantified by liquid scintillation.
(§2) IC50 values were defined as in Paull K.D., et al., J. Natl. Cancer Inst. 1989, 81:1088-1092, where growth, as indicated by staining or thymidine incorporation, corresponded to 50% of that of the control cultures. […] Variances of DELTA values were expressed as standard deviations in log10 units. Comparison of DELTA values was made using Pearson correlation coefficients. Resistance factors were defined as the ratios of IC50 values between the resistant line and the parent line. Statistical evaluation was performed either with NCI programmes, with RS/1 software (BBN Research Systems, Cambridge, MA, USA), or with Sigmaplot (Jandel Scientific, San Rafael, CA, USA).
(§3) The effect of DACA on the growth of cultured cells was assessed by continuous drug exposure. […] Four multidrug-resistant cell lines, developed from JL and JB1 by in vitro exposure to increasing concentrations of doxorubicin (LD and B1D) or amsacrine (LA and B1A) (Finlay G.J., et al., J. Natl. Cancer Inst. 1990, 82, 662-667, Snow K., et al., Br. J. Cancer 1991, 63, 17-28) were tested.
(§4) DACA was compared with six other drugs including four topo II poisons, doxorubicin, mitozantrone, etopo-side and amsacrine. […]

B1D = experiment: as above; type: cell-based, human
Procedure: as §1, §2, §3, §4

LA = experiment: as above; type: cell-based, human
Procedure: as §1, §2, §3, §4

LD = experiment: as above; type: cell-based, human
Procedure: as §1, §2, §3, §4

[1] = system: subcutaneous melanoma xenografts growing in nude mice; settings: summary given by Berger et al.; cited from earlier work
[2] = system: advanced colon 38 tumours; experiment: Tumour growth delay, advanced subcutaneous colon 38 tumours in mice; type: in vivo
Procedure: Colon 38 carcinoma was obtained from the Mason Research Institute (Worchester, MA, USA) and was grown in BDF1 hosts. Tumour fragments (1 mm^3) were implanted subcutaneously in anaesthetised mice. Tumours had grown to the appropriate size 9 days after implantation. A melanoma tumour line (WADH) was developed in the Cancer Research Laboratory. Tumour cells were grown in culture and 1 x 10^6 cells were implanted intradermally into the flank of nude (C57BI/J genetic background) mice. Mice were grown under sterile surroundings until tumours were of appropriate size.
Tumours were measured 3x (colon 38) or 2x (xeno-graft) weekly with callipers and tumour volumes calculated as 0.52a^2b, where a and b were the minor and major tumour axes. Tumour growth delays were measured at a time when tumour volumes of treated and control animals had increased by 4-fold.
The effects of five compounds, • (i) DACA • (ii) N-[2-(dimethylamino)ethyl]-9-methoxyphen-azine-1-carboxamide (compound 28 of J. Med. Chem., 1987, 30, 843-851), • (iii) N-[2-(dimethylamino) ethyl]-2-phenylquino-line-8-carboxamide (compound 6 of J. Med. Chem. 1988, 31, 1048-1052), • (iv) N-[2-(dimethylamino)ethyl]-2-(4-pyridyl)-guinoline-8-carboxamide (compound 18 of J. Med. Chem., 1989, 32, 396-401), and • (v) N-[2-(dimethylamino)ethyl]-9-bromo-dibenzo-[1,4]-dioxin-1-carboxamide (compound 20 of J. Med. Chem. 1992, 35, 258-266) on the growth of advanced colon 38 tumours in mice was investigated by implanting tumour fragments subcutaneously and allowing them to grow until they had reached a diameter of 5-8 mm.

human cell lines = experiment: Cytotoxicity under continuous drug exposure, mean over human cell lines; type: cell-based; settings: read-out: mean IC50 value for human cell lines
Procedure: The latter value compared with 2 µM for the 4-pyridyl-quinoline analogue, 0.76 µM for amsacrine, 0.1 µM for the amsacrine analogue 4'-(9-[4-[N-methylcarboxamido]-5-methyl]-acridinylamino)-methanesulphon-m-anisidide ("CI-921") and 81 µM for etoposide.

[3] = system: sublines of Jurkat leukaemia cells; experiment: Cross-resistance of Jurkat sublines selected for resistance to amsacrine; type: cell-based, human; settings: two lines selected for resistance to amsacrine
Procedure: Two of these lines had been selected for resistance to amsacrine, and were more than 100-fold cross-resistant to amsacrine but only 2- to 4-fold cross-resistant to DACA. […] We believe that this ability to overcome resistance mechanisms accounts for the different IC50 patterns observed with the human cell line panels.
Tumour cell lines were cultured in 96-well plates. […] Primary cultures were incubated at 37°C in sealed perspex boxes containing a humidified atmosphere of 5% CO2 and 5% O2 in nitrogen for 7 days. 5-Methyl-[^3H]-thymidine (20 Ci.mmol^-1; 0.04 µCi per well), thymidine and 5-fluorodeoxyuridine (each at final concentrations of 0.5 µM) were added in medium to cultures (20 µl per well) 24 h before terminating the cultures.
1989, 81:1088-1092, where growth, as indicated by staining or thymidine incorporation, corresponded to 50% of that of the control cultures.

[4] = system: primary human melanoma cultures; experiment: cells; settings: for IC50: Homo sapiens, read-out: mean IC50
Procedure: Acridine carboxamide hydrochloride, synthesised in the Cancer Research Laboratory (Atwell G.J., et al., J.Med. Chem. 1987, 30, 664-669), and amsacrine isethionate, obtained from the Parke-Davis Division of the Warner-Lambert Company, Ann Arbor, USA, were dissolved in 50% v/v aqueous ethanol to make stock solutions of 2-5 mmol/l and stored at -20°C. Other cytotoxic drugs were available either from the NCI repository (Monks A., et al., J. Natl. Cancer Inst. 1991, 83, 757-766) or were obtained as described in Marshall E.S., et al., J. Natl. Cancer Inst. 1992, 84, 341-344 and Finlay, et al., Eur. J. Cancer din. Oncol. 1986, 22, 655-662. Cell lines were from the NCI repository except for MM-96 (Dr. R. Whitehead, Ludwig Institute, Melbourne, Australia), FME (Dr. K.M. Tveit, Norwegian Radium Hospital, Oslo, Norway) and Jurkat normal and multidrug-resistant lines (Dr. K. Snow and Dr. W. Judd, Department of Cellular and Molecular Biology, University of Auckland). Melanoma tissue was obtained from patients with pathologically confirmed metastatic and recurrent melanomas under Auckland Hospital Ethical Committee guidelines. Cells were released by digestion of tissue (at 50 mg.ml^-1) with collagenase (1 mg.ml^-1) and DNAase (50 µg.ml^-1) with continuous stirring at 37°C for 1 to 2 hours, and cultured as previously described (Marshall E.S., et al., J. Natl. Cancer Inst. 1992, 84, 341-344).
as §1, §2
DACA was also compared in a series of 12 primary melanoma cultures. Tissue was excised from human malignant melanomas and cultured using a modified 96-well assay system in which the cells were cultured on agarose and assayed for proliferation using the ^3H-thymidine incorporation assay as described in Marshall E.S., et al., J. Natl. Cancer Inst. 1992, 84, 341-344.

[5] = system: panel of cell lines encompassing a number of tumour types; experiment: NCI cell line panel, growth inhibition by protein staining; type: cell-based; settings: data provided by the National Cancer Institute
Procedure: as §1, §2

[6] = B1A (from B1 by exposure to amsacrine), ratio of IC50 resistant line / parent line
[7] = B1D (from B1 by exposure to doxorubicin), ratio of IC50 resistant line / parent line
[8] = LA (from L by exposure to amsacrine), ratio of IC50 resistant line / parent line
[9] = LD (from L by exposure to doxorubicin), ratio of IC50 resistant line / parent line
[10] = maximum tolerated dose of the comparison drug
[11] = 100mg/kg each injection, ip, 2 doses, 0, 60 min
[12] = human, jurkat leukaemia sublines

O=C1c2c(O)ccc(O)c2C(=O)c2c(NCCNCCO)ccc(NCCNCCO)c21 [mitoxantrone]
Resistance factors (B1A; [6]): 59
Resistance factors (B1D; [7]): 8.4
Resistance factors (LA; [8]): 42
Resistance factors (LD; [9]): 160

Bleomycin
Percentage of xenografts responding [1]: 0%

O=P1(N(CCCl)CCCl)NCCCO1 (centres unmarked) [cyclophosphamide, reference compound]
Growth delay [2, 10]: 6.5 days
Percentage of xenografts responding [1]: 11%

Mitomycin C
Percentage of xenografts responding [1]: 32%

O=c1[nH]cc(F)c(=O)[nH]1 [5-fluorouracil, reference compound]
Growth delay [2, 10]: 13 days
Percentage of xenografts responding [1]: 14%

CN(C)CCNC(=O)c1cccc2c1Oc1c(Br)cccc1O2 [(v), N-[2-(dimethylamino)ethyl]-9-bromo-dibenzo-[1,4]-dioxin-1-carboxamide]
Growth delay [2, 11]: 7 days

COc1cc(NS(C)(=O)=O)ccc1Nc1c2ccccc2nc2ccccc12 [amsacrine]
IC50 (human cell lines): 760 nM
cross-resistance [3]: more than 100 fold
Growth delay [2, 10]: 2 days
IC50 [4]: 128 nM
Resistance factors (B1A; [6]): 240
Resistance factors (B1D; [7]): 8.8
Resistance factors (LA; [8]): 130
Resistance factors (LD; [9]): 110
IC50 [5]: 520 nM

CC[C@]1(O)C[C@@H]2CN(CCc3c([nH]c4ccccc34)[C@@](C(=O)OC)(c3cc4c(cc3OC)N(C)[C@H]3[C@@](O)(C(=O)OC)[C@H](OC(C)=O)[C@]5(CC)C=CCN6CC[C@]43[C@@H]65)C2)C1 [Vinblastine]
Percentage of xenografts responding [1]: 10%

CN(C)CCNC(=O)c1cccc2ccc(-c3ccncc3)nc12 [(iv), N-[2-(dimethylamino)ethyl]-2-(4-pyridyl)-guinoline-8-carboxamide]
IC50 (human cell lines; continuous drug exposure over approx. 5 cell doubling times): 2000 nM
Growth delay ([2]; 50mg/kg each injection, ip, 2 doses, 0,60 min): 5 days

CN(Cc1cnc2nc(N)nc(N)c2n1)c1ccc(C(=O)N[C@@H](CCC(=O)O)C(=O)O)cc1 [Methotrexate]
Percentage of xenografts responding [1]: 7%

CC[C@@]1(O)C(=O)OCc2c1cc1n(c2=O)Cc2cc3ccccc3nc2-1 [camptothecin]
Resistance factors (B1A; [6]): 0.48
Resistance factors (B1D; [7]): 0.86
Resistance factors (LA; [8]): 1.0
Resistance factors (LD; [9]): 0.97

CN(C)CCNC(=O)c1cccc2ccc(-c3ccccc3)nc12 [(iii), N-[2-(dimethylamino)ethyl]-2-phenylquino-line-8-carboxamide]
Growth delay ([2]; 75mg/kg each injection, ip, 2 doses, 0,60 min): 8.5 days

CNC(=O)c1cccc2c(Nc3ccc(NS(C)(=O)=O)cc3OC)c3cccc(C)c3nc12 [CI-921, 4'-(9-[4-[N-methylcarboxamido]-5-methyl]-acridinylamino)-methanesulphon-m-anisidide]
IC50 (human cell lines): 100 nM

COc1cc([C@@H]2c3cc4c(cc3[C@@H](O[C@@H]3O[C@@H]5CO[C@@H](C)O[C@H]5[C@H](O)[C@H]3O)[C@H]3COC(=O)[C@H]23)OCO4)cc(OC)c1O [etoposide]
IC50 (human cell lines): 81000 nM
IC50 [4]: 2200 nM
proportions of cells killed ([4]; human, primary melanoma cultures): ≤ 90%
Resistance factors (B1A; [12]): 22
Resistance factors (B1D; [12]): 83
Resistance factors (LA; [12]): 11
Resistance factors (LD; [12]): 93
IC50 [5]: 21000 nM
Percentage of xenografts responding [1]: 0% (2 studies)

COc1cccc2c1C(=O)c1c(O)c3c(c(O)c1C2=O)C[C@@](O)(C(=O)CO)C[C@@H]3O[C@H]1C[C@H](N)[C@H](O)[C@H](C)O1 [doxorubicin]
IC50 [4]: 56 nM
Resistance factors (B1A; [12]): 11
Resistance factors (B1D; [12]): 15
Resistance factors (LA; [12]): 3.8
Resistance factors (LD; [12]): 16
IC50 [5]: 140 nM
Percentage of xenografts responding [1]: 5% (total of 5 studies)

CC[C@]1(O)C[C@H]2CN(CCc3c([nH]c4ccccc34)[C@@](C(=O)OC)(c3cc4c(cc3OC)N(C=O)[C@H]3[C@@](O)(C(=O)OC)[C@H](OC(C)=O)[C@]5(CC)C=CCN6CC[C@]43[C@@H]65)C2)C1 [vincristine]
Resistance factors (B1A; [12]): 2.0
Resistance factors (B1D; [12]): 10
Resistance factors (LA; [12]): 1.5
Resistance factors (LD; [12]): 3.6
Percentage of xenografts responding [1]: 43%

N.N.[Cl][Pt][Cl] [Cisplatin]
Percentage of xenografts responding [1]: 13%

COc1cccc2nc3cccc(C(=O)NCCN(C)C)c3nc12 [(ii), N-[2-(dimethylamino)ethyl]-9-methoxyphen-azine-1-carboxamide]
Growth delay (days) [2, 11]: 5,5 (2 expts) days
